Two compounds from US7230025B2, “Pyrazole derivatives” (Pfizer, Inc., priority 2002, dated 2007) can be followed below.

For orientation: IC50 means the point on the concentration scale where inhibition reaches its midpoint.

This test addresses T1, HIV-1 reverse transcriptase (Human immunodeficiency virus type 1 group M subtype B, UniProt P04585).
T1 construct: purified recombinant HIV-1 reverse transcriptase (RT, EC, 2.7.7.49) obtained by expression in Escherichia Coli; made in house; host or cells: Escherichia coli
The experiment in a line: Inhibition of HIV-1 Reverse Transcriptase Enzyme. Format: biochemical. The text has this: The activity of the compounds of the invention as reverse transcriptase inhibitors may be measured using the following assay.
Inhibition of HIV-1 Reverse Transcriptase Enzyme
Using purified recombinant HIV-1 reverse transcriptase (RT, EC, 2.7.7.49) obtained by expression in Escherichia Coli, a 96-well plate assay system is established for assaying a large number of samples using either the Poly(rA)-oligo(dT) Reverse Transcriptase [3H]-SPA enzyme assay system (Amersham NK9020) or the [3H]-flashplate enzyme assay system (NEN-SMP 103) and following the manufacturer's recommendations. The compounds are dissolved in 100% DMSO and diluted with the appropriate buffer to a 5% final DMSO concentration. The inhibitory activity is expressed in percent inhibition relative to DMSO control.

Read-outs that look alike come from different tables or passages of the source.

`CCc1nn(C)c(Oc2ccccn2)c1Oc1cc(C#N)cc(C#N)c1` [Example 1, 5-[3-Ethyl-1-methyl-5-(pyridin-2-yloxy)-1H-pyrazol4-yloxy]-isophthalonitrile]: the IC50 (purified recombinant HIV-1 RT expressed in Escherichia Coli, [3H]-SPA or [3H]-flashplate enzyme assay, 5% final DMSO, read-out: IC50) worked out at 5400 nM.

For the compound `CCc1nn(C)c(Oc2ncc(Oc3ccc(OC)cc3)cn2)c1Oc1cc(C#N)cc(C#N)c1` [Example 6], the concentration for half-maximal inhibition (IC50) worked out at 391 nM.
